Legend:
[1] = test system: patients with pulmonary fibrosis; conditions: open-label trials (Ghofrani 2002; Collard 2007); cited from earlier work
[2] = test system: bleomycin-induced pulmonary fibrosis and pulmonary hypertension; conditions: through inhibition of ROS generation and RhoA/Rho kinase activation (Hemnes et al. 2008); cited from earlier work
[3] = test system: bleomycin-induced lung fibrosis; conditions: in-vivo, bleomycin-induced lung fibrosis model in mice (Cortijo et al. 2009); cited from earlier work
PDE4B1 = molecular target: T1, PDE4B1 (Homo sapiens, UniProt Q07343); experiment: Inhibition of PDE4B1 activity (SPA, [3H]cAMP); format: biochemical; conditions: recombinant PDE4B1 expressed in SF21 cells; 0.5 pM [sic] cAMP; values given as bins; read-out: PDE4B1 inhibitory values measured as −logIC50 (converted)
T1 construct: made in house; host or cells: SF21 insect cells (baculovirus; pCR-Bac vector)
Summary of the method: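 Recombinant human PDE4B1 (Sf21 cell 1000 g supernatant) in 20 mM Tris pH 7.4, 0.1 mg/ml BSA, 5 mM Mg2+, […] with [3H]cAMP tracer, enzyme giving 10-20% conversion. After 5 min preincubation at 37 °C, 15 min reaction, stopped by SPA beads with IBMX; IC50 by non-linear regression.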

human PDE5 = molecular target: T2, human PDE5 (Homo sapiens, UniProt O76074); experiment: Inhibition of PDE5 activity (SPA, [3H]cGMP, platelet lysate); format: biochemical; conditions: PDE5 from human platelet lysate; values given as bins; read-out: PDE5A inhibitory values measured as −logIC50 (converted)
T2 construct: from tissue; host or cells: human platelets from fresh donor blood (10,000 g supernatant of sonicated platelets)
Summary of the method: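 Human platelet lysate served as PDE5 source, with 1 μM motapizone and 10 nM PDE2 inhibitor present; […] plus [3H]cGMP tracer, pH 7.4, 5 mM Mg2+, 10-20% substrate turnover. After 5 min preincubation, 15 min at 37 °C, stopped with SPA beads and IBMX; IC50 by non-linear regression.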

T1 sequence (Q07343 whole entry): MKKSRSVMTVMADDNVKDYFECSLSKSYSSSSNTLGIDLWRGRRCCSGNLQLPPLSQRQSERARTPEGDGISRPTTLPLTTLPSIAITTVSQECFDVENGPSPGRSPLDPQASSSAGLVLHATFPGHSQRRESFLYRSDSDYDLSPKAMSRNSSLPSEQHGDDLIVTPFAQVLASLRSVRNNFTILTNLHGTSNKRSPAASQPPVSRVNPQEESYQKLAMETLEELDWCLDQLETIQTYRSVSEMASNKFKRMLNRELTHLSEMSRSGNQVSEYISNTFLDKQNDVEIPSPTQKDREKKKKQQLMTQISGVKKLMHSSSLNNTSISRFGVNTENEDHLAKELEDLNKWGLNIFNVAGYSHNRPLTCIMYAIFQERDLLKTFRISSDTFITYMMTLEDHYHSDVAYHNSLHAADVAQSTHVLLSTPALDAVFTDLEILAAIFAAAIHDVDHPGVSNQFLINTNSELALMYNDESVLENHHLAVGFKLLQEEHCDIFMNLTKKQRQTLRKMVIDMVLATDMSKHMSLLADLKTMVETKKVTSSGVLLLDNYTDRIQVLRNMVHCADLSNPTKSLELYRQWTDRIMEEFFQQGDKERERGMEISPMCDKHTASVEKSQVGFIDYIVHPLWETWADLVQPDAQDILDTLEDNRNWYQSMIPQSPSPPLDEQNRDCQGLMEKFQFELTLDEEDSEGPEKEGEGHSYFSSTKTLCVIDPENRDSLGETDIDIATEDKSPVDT

IC50 (PDE4B1)	IC50 (human PDE5)	Compound	other results
–	–	CCCc1nn(C)c2c(=O)[nH]c(-c3cc(S(=O)(=O)N4CCN(C)CC4)ccc3OCC)nc12 [sildenafil]	exercise tolerance [1]: increases exercise tolerance; lung hemodynamic (vascular resistance and ventilation/perfusion matching) [1]: improves lung hemodynamic; bleomycin-induced pulmonary fibrosis and pulmonary hypertension [2]: attenuates bleomycin-induced pulmonary fibrosis and pulmonary hypertension
–	–	O=C(Nc1c(Cl)cncc1Cl)c1ccc(OC(F)F)c(OCC2CC2)c1 [roflumilast]	fibrosis development [3]: inhibit fibrosis development
1 to 10 nM	< 10 nM	CCOc1cc2c(cc1OC)C(c1ccc(C(=O)N3CCC(n4c(=O)c5sc(-c6ccc(F)cc6OC)cc5n(Cc5nc(COC)no5)c4=O)CC3)cc1)=N[C@@H]1CCSC[C@H]21 [Example 44, 3-[1-({4-[(4aR,10bR)-9-ethoxy-8-methoxy-3,4,4a,10b-tetrahydro-1H-thiopyrano[4,3-c]isoquinolin-6-yl]phenyl}carbonyl)piperidin-4-yl]-6-(4-fluoro-2-methoxyphenyl)-1-{[3-(methoxymethyl)-1,2,4-oxadiazol-5-yl]methyl}thieno[3,2-d]pyrimidine-2,4(1H,3H)-dione]	–
1 to 10 nM	< 10 nM	CCOc1cc2c(cc1OC)C(c1ccc(C(=O)N3CCC(n4c(=O)c5sc(-c6ccccc6F)cc5n(Cc5nc(CC)no5)c4=O)CC3)cc1)=N[C@@H]1CCSC[C@H]21 [Example 48, 3-[1-({4-[(4aR,10bR)-9-ethoxy-8-methoxy-3,4,4a,10b-tetrahydro-1H-thiopyrano[4,3-c]isoquinolin-6-yl]phenyl}carbonyl)piperidin-4-yl]-1-[(3-ethyl-1,2,4-oxadiazol-5-yl)methyl]-6-(2-fluorophenyl)thieno[3,2-d]pyrimidine-2,4(1H,3H)-dione]	–
1 to 10 nM	< 10 nM	CCOc1cc2c(cc1OC)C(c1ccc(C(=O)N3CCC(n4c(=O)c5sc(-c6ccc(F)cc6OC)cc5n(Cc5nnn(CC)n5)c4=O)CC3)cc1)=N[C@@H]1CCSC[C@H]21 [Example 32, 3-[1-({4-[(4aR,10bR)-9-ethoxy-8-methoxy-3,4,4a,10b-tetrahydro-1H-thiopyrano[4,3-c]isoquinolin-6-yl]phenyl}carbonyl)piperidin-4-yl]-1-[(2-ethyl-2H-tetrazol-5-yl)methyl]-6-(4-fluoro-2-methoxyphenyl)thieno[3,2-d]pyrimidine-2,4(1H,3H)-dione]	–
> 10 nM	10 to 100 nM	CCOc1cc2c(cc1OC)C(c1cccc(C(=O)N3CCC(n4c(=O)c5sc(-c6ccc(F)cc6OC)cc5n(Cc5nnn(CC)n5)c4=O)CC3)c1)=N[C@@H]1CCSC[C@H]21 [Example 33, 3-[1-({3-[(4aR,10bR)-9-ethoxy-8-methoxy-3,4,4a,10b-tetrahydro-1H-thiopyrano[4,3-c]isoquinolin-6-yl]phenyl}carbonyl)piperidin-4-yl]-1-[(2-ethyl-2H-tetrazol-5-yl)methyl]-6-(4-fluoro-2-methoxyphenyl)thieno[3,2-d]pyrimidine-2,4(1H,3H)-dione]	–
1 to 10 nM	10 to 100 nM	CCOc1cc2c(cc1OC)C(c1ccc(C(=O)N3CCC(n4c(=O)c5sc(-c6ccccc6)cc5n(Cn5nnc(CC)n5)c4=O)CC3)cc1)=N[C@@H]1CCSC[C@H]21 [Example 57, 3-[1-({4-[(4aR,10bR)-9-ethoxy-8-methoxy-3,4,4a,10b-tetrahydro-1H-thiopyrano[4,3-c]isoquinolin-6-yl]phenyl}carbonyl)piperidin-4-yl]-1-[(5-ethyl-2H-tetrazol-2-yl)methyl]-6-phenylthieno[3,2-d]pyrimidine-2,4(1H,3H)-dione]	–
1 to 10 nM	> 100 nM	CCOc1cc2c(cc1OC)C(c1ccc(C(=O)N3CCC(n4c(=O)c5sc(-c6ccccc6)cc5n(Cc5coc(CC)n5)c4=O)CC3)cc1)=N[C@@H]1CCSC[C@H]21 [Example 16, 3-[1-({4-[(4aR,10bR)-9-ethoxy-8-methoxy-3,4,4a,10b-tetrahydro-1H-thiopyrano[4,3-c]isoquinolin-6-yl]phenyl}carbonyl)piperidin-4-yl]-1-[(2-ethyl-1,3-oxazol-4-yl)methyl]-6-phenylthieno[3,2-d]pyrimidine-2,4(1H,3H)-dione]	–
> 10 nM	< 10 nM	CCn1nnc(Cn2c(=O)n(C3CCN(C(=O)c4ccc(C5=N[C@@H]6CCSC[C@@H]6c6cc(OC)c(OC)cc65)cc4)CC3)c(=O)c3sc(-c4ccccc4)cc32)n1 [Example 59, 3-[1-({4-[(4aR,10bR)-8,9-dimethoxy-3,4,4a,10b-tetrahydro-1H-thiopyrano[4,3-c]isoquinolin-6-yl]phenyl}carbonyl)piperidin-4-yl]-1-[(2-ethyl-2H-tetrazol-5-yl)methyl]-6-phenylthieno[3,2-d]pyrimidine-2,4(1H,3H)-dione]	–
< 1 nM	10 to 100 nM	CCOc1cc2c(cc1OC)C(c1ccc(C(=O)N3CCC(n4c(=O)c5sc(-c6ccccc6)cc5n(Cc5nc(CCCOC)no5)c4=O)CC3)cc1)=N[C@@H]1CCSC[C@H]21 [Example 50, 3-[1-({4-[(4aR,10bR)-9-ethoxy-8-methoxy-3,4,4a,10b-tetrahydro-1H-thiopyrano[4,3-c]isoquinolin-6-yl]phenyl}carbonyl)piperidin-4-yl]-1-{[3-(3-methoxypropyl)-1,2,4-oxadiazol-5-yl]methyl}-6-phenylthieno[3,2-d]pyrimidine-2,4(1H,3H)-dione]	–

Compound	IC50 (PDE4B1)	IC50 (human PDE5)	other results
CCOc1cc2c(cc1OC)C(c1cccc(C(=O)N3CCC(n4c(=O)c5sc(-c6ccccc6F)cc5n(Cc5nnn(CC)n5)c4=O)CC3)c1)=N[C@@H]1CCSC[C@H]21 [Example 39]	1 to 10 nM	< 10 nM	–

From patent publication US9018175B2 (Takeda GmbH, priority 2009, dated 2015)
